Source: patent US5328902A, “7-(substituted)-9-[(substituted glycyl)amido]-6-demethyl-6-deoxytetracyclines” (American Cyanamid Co., priority 1992, dated 1994)
In brackets after ≈: the same amount, converted by molar mass.

Experiments:
[1] = test system: S. aureus UBMS 88-4; assay: MIC, agar dilution; type: cell-based; details: S. aureus UBMS 88-4
[2] = test system: X. maltophilia NEMC 87210; assay: MIC, agar dilution; type: cell-based
[3] = test system: E. coli MC 4100 TNIOC Tet B; assay: microbe, parasite or virus in culture; type: cell-based; details: E. coli MC 4100 TNIOC Tet B
[4] = test system: S. aureus UBMS 90-2 Tet M; assay: microbe, parasite or virus in culture; type: cell-based; details: S. aureus UBMS 90-2 Tet M
[5] = test system: E. coli MC 4100 Tet sens.; assay: MIC, agar dilution; type: cell-based
[6] = test system: E. coli J2175; assay: MIC, agar dilution; type: cell-based; details: E. coli J2175
[7] = test system: E. coli UBMS 89-1 Tet M; assay: microbe, parasite or virus in culture; type: cell-based; details: E. coli UBMS 89-1 Tet M
[8] = test system: S. aureus ATCC 29213; assay: MIC, agar dilution; type: cell-based; details: S. aureus ATCC 29213
[9] = test system: E. faecalis ATCC 29212; assay: MIC, agar dilution; type: cell-based; details: E. faecalis ATCC 29212
[10] = test system: Ps. acruginosa ATCC 27853; assay: MIC, agar dilution; type: cell-based; details: Ps. acruginosa ATCC 27853
[11] = test system: S. aureus SMITH (MP); assay: MIC, agar dilution; type: cell-based; details: S. aureus SMITH (MP)
[12] = test system: S. aureus UBMS 88-5 Tet M; assay: microbe, parasite or virus in culture; type: cell-based; details: S. aureus UBMS 88-5 Tet M
[13] = test system: E. coli UBMS 89-2 Tet sens.; assay: MIC, agar dilution; type: cell-based; details: E. coli UBMS 89-2 Tet sens.
[14] = test system: E. coli #311 (MP); assay: MIC, agar dilution; type: cell-based; details: E. coli #311 (MP)
[15] = test system: E. coli J3272 Tet D; assay: microbe, parasite or virus in culture; type: cell-based; details: E. coli J3272 Tet D
[16] = test system: S. aureus NEMC 8769; assay: MIC, agar dilution; type: cell-based; details: S. aureus NEMC 8769
[17] = test system: S. aureus UBMS 90-3; assay: MIC, agar dilution; type: cell-based; details: S. aureus UBMS 90-3
[18] = test system: E. coli UBMS 90-5; assay: MIC, agar dilution; type: cell-based
[19] = test system: S. aureus UBMS 88-7 Tet K; assay: microbe, parasite or virus in culture; type: cell-based; details: S. aureus UBMS 88-7 Tet K
[20] = test system: E. coli PRP1 Tet A; assay: microbe, parasite or virus in culture; type: cell-based; details: E. coli PRP1 Tet A
[21] = test system: E. coli UBMS 88-1 Tet B; assay: microbe, parasite or virus in culture; type: cell-based; details: E. coli UBMS 88-1 Tet B; 18 hours at 35° C.
[22] = test system: S. aureus IVES 1 983; assay: MIC, agar dilution; type: cell-based; details: S. aureus IVES 1 983
[23] = test system: S. aureus ROSE (MP); assay: MIC, agar dilution; type: cell-based; details: S. aureus ROSE (MP)
[24] = test system: Enterococcus 12201; assay: MIC, agar dilution; type: cell-based; details: Enterococcus 12201
[25] = test system: E. coli J3272 Tet C; assay: microbe, parasite or virus in culture; type: cell-based; details: E. coli J3272 Tet C
[26] = test system: E. coli BAJ9003 IMP MUT; assay: microbe, parasite or virus in culture; type: cell-based; details: E. coli BAJ9003 IMP MUT
[27] = test system: E. coli ATCC 25922; assay: MIC, agar dilution; type: cell-based; details: E. coli ATCC 25922
[28] = test system: S. hemolyticus AVHAH 88-3; assay: MIC, agar dilution; type: cell-based; details: S. hemolyticus AVHAH 88-3
[29] = test system: S. aureus IVES 2943; assay: MIC, agar dilution; type: cell-based; details: S. aureus IVES 2943
[30] = test system: S. mariescens FPOR 8733; assay: MIC, agar dilution; type: cell-based
[31] = test system: S. aureus UBMS 90-1 Tet M; assay: microbe, parasite or virus in culture; type: cell-based; details: S. aureus UBMS 90-1 Tet M
[32] = test system: E. coli UBMS 90-4 Tet M; assay: microbe, parasite or virus in culture; type: cell-based; details: E. coli UBMS 90-4 Tet M
[33] = test system: the ribosome; assay: Reversibility of binding: bacterial growth resumes after washing; type: cell-based; details: bacterial growth resumes when the compound is removed from the cultures by washing
Description: Therefore, the ability of these compounds to inhibit bacterial growth appears to be a direct consequence of its ability to inhibit protein synthesis at the ribosome level.

[34] = test system: E. coli J3272 Tet sens.; assay: MIC, agar dilution; type: cell-based
[35] = test system: Wild Type S30 (wild type ribosomes, E. coli strain MRE600, tetracycline sensitive); assay: E. coli in vitro protein translation system, wild type S30

Compound | MIC [1] [µg/mL] | MIC [3] [µg/mL] | MIC [4] [µg/mL] | MIC [6] [µg/mL] | MIC [7] [µg/mL] | MIC [8] [µg/mL] | MIC [10] [µg/mL] | MIC [11] [µg/mL] | MIC [12] [µg/mL] | MIC [13] [µg/mL] | MIC [14] [µg/mL] | MIC [15] [µg/mL] | MIC [16] [µg/mL] | MIC [17] [µg/mL] | MIC [18] [µg/mL] | MIC [19] [µg/mL] | MIC [20] [µg/mL] | MIC [21] [µg/mL] | MIC [22] [µg/mL] | MIC [23] [µg/mL] | further results
CN(C)c1cc(NC(=O)CNN2CCCCC2)c(O)c2c1CC1CC3C(N(C)C)C(O)=C(C(N)=O)C(=O)C3(O)C(O)=C1C2=O (stereo not drawn) [W, [4S-(4alpha,12aalpha)]-4,7-Bis(dimethylamino)-1,4,4a,5,5a,6,11,12a-octahydro-3,10, 12,12a-tetrahydroxy-hydroxy-1,11-dioxo-9[[(1-piperidinylamino)acetyl]amino]-2naphthacenecarboxamide] | > 32 | > 32 | > 32 | > 32 | > 32 | 32 (≈ 52.2 µM) | > 32 | 16 (≈ 26.1 µM) | > 32 | > 32 | > 32 | > 32 | > 32 | 16 (≈ 26.1 µM) | > 32 | > 32 | > 32 | > 32 | > 32 | > 32 | MIC [2]: > 32 µg/mL; MIC [5]: 32 µg/mL (≈ 52.2 µM); MIC [9]: > 32 µg/mL; MIC [24]: > 32 µg/mL; MIC [25]: > 32 µg/mL; MIC [26]: 16 µg/mL (≈ 26.1 µM); MIC [27]: > 32 µg/mL; MIC [28]: > 32 µg/mL; MIC [29]: > 32 µg/mL; MIC [30]: > 32 µg/mL; MIC [31]: > 32 µg/mL; MIC [32]: > 32 µg/mL
CN(C)c1cc(NC(=O)CNOCc2ccccc2)c(O)c2c1C[C@H]1C[C@H]3[C@H](N(C)C)C(O)=C(C(N)=O)C(=O)[C@@]3(O)C(O)=C1C2=O [X, [4S-(4-alpha,12aalpha)]-4,7-Bis(dimethylamino)-1,4,4a,5,5a,6,11,12a-octahydro-3,10, 12,12a-tetrahydroxy-1,11-dioxo-9-[[[(phenylmethoxy)amino]acetyl]amino]-2-naphthacenecarboxamide] | 1 (≈ 1.57 µM) | > 32 | 2 (≈ 3.15 µM) | > 32 | 16 (≈ 25.2 µM) | 1 (≈ 1.57 µM) | > 32 | 0.5 (≈ 0.787 µM) | 2 (≈ 3.15 µM) | > 32 | 16 (≈ 25.2 µM) | 16 (≈ 25.2 µM) | 1 (≈ 1.57 µM) | 1 (≈ 1.57 µM) | > 32 | 4 (≈ 6.29 µM) | > 32 | > 32 | 8 (≈ 12.6 µM) | 16 (≈ 25.2 µM) | MIC [2]: 16 µg/mL (≈ 25.2 µM); MIC [5]: 4 µg/mL (≈ 6.29 µM); MIC [9]: 1 µg/mL (≈ 1.57 µM); MIC [24]: 4 µg/mL (≈ 6.29 µM); MIC [25]: > 32 µg/mL; MIC [26]: 1 µg/mL (≈ 1.57 µM); MIC [27]: 16 µg/mL (≈ 25.2 µM); MIC [28]: 4 µg/mL (≈ 6.29 µM); MIC [29]: 8 µg/mL (≈ 12.6 µM); MIC [30]: > 32 µg/mL; MIC [31]: 2 µg/mL (≈ 3.15 µM); MIC [32]: > 32 µg/mL
[4S-(4alpha,12aalpha)]-4,7-Bis(dimethylamino-1,4,4a,5,5a,6,11,12a-octahydro-3,10, 12,12a-tetrahydroxy-9-[[[(2-(methoxyethyl)amino]acetyl]amino]-1,11-dioxo-2-naphthacenecarboxamide dihydrochloride | 0.5 | 2 | 0.5 | 2 | 2 | 1 | > 32 | 0.5 | 1 | 2 | 2 | 1 | 0.5 | 0.5 | 2 | 16 | 8 | 2 | 32 | 32 | reversibility of binding to the ribosome [33]: bind reversibly; MIC [34]: 2 µg/mL; % Inhibition Wild Type S30 ([35]; Conc. 0.06 mg/ml): 92%; % Inhibition Wild Type S30 ([35]; Conc. 1.0 mg/ml): 98%; inhibition of protein synthesis occuring on wild type ribosomes ([35]; coupled transcription and translation system): effectively inhibit protein synthesis; MIC [24]: 0.5 µg/mL; MIC [25]: 4 µg/mL; MIC [27]: 2 µg/mL; MIC [28]: 2 µg/mL; MIC [29]: 32 µg/mL; MIC [30]: > 32 µg/mL; MIC [31]: 2 µg/mL; MIC [32]: 2 µg/mL
